Columns and labels:
Assay in all cases: relative viability (nuclei count vs DMSO), 5 days (fraction); higher = more cells survive
A-427 = test system: A-427
In short: (§1)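 Relative viability is defined as nuclei in treated wells over nuclei in vehicle wells. Duplicate plates were run and medians reported. Lung cancer cell lines in 1536-well plates were dosed by pin tool one day after seeding, with one drug or with a fixed anchor-drug dose plus five library-drug doses (not always all listed) in √10 steps, and nuclei were counted after 5 days.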

HCC-15 = test system: HCC-15
In short: as §1

HCC-78 = test system: HCC-78
In short: as §1

HOP-62 = test system: HOP-62
In short: as §1

LC-2-ad = test system: LC-2-ad
In short: as §1

LXF-289 = test system: LXF-289
In short: as §1

NCI-H1734 = test system: NCI-H1734
In short: as §1

NCI-H1755 = test system: NCI-H1755
In short: as §1

NCI-H1792 = test system: NCI-H1792
In short: as §1

NCI-H1915 = test system: NCI-H1915
In short: as §1

NCI-H1975 = test system: NCI-H1975
In short: as §1

NCI-H2126 = test system: NCI-H2126
In short: as §1

NCI-H2228 = test system: NCI-H2228
In short: as §1

NCI-H2347 = test system: NCI-H2347
In short: as §1

NCI-H647 = test system: NCI-H647
In short: as §1

PC-3 [JPC-3] = test system: PC-3 [JPC-3]
In short: as §1

RERF-LC-KJ = test system: RERF-LC-KJ
In short: as §1

SK-LU-1 = test system: SK-LU-1
In short: as §1

SW 1573 = test system: SW 1573
In short: as §1

Q: CCN(CC)CCCCNc1ncc2cc(-c3cc(OC)cc(OC)c3)c(NC(=O)NC(C)(C)C)nc2n1 + CC1(C)CCC(c2ccc(Cl)cc2)=C(CN2CCN(c3ccc(C(=O)NS(=O)(=O)c4ccc(N[C@H](CCN5CCOCC5)CSc5ccccc5)c(S(=O)(=O)C(F)(F)F)c4)cc3)CC2)C1 [Navitoclax] (partner 0.5 µM) was tested. Which relative viability (A-427; first compound 0.01 µM) did it give?
A: 0.991

Q: And the relative viability (A-427; first compound 0.03162 µM)?
A: 1.03

Q: What about the relative viability (A-427; first compound 0.1 µM) of the same molecule?
A: 1.11

Q: What about the relative viability (A-427; first compound 0.3162 µM) of the same molecule?
A: 1.08

Q: What about the relative viability (A-427; first compound 1 µM) of the same molecule?
A: 0.908

Q: What about the relative viability (HCC-15; first compound 0.01 µM) of the same molecule?
A: 0.748

Q: What about the relative viability (HCC-15; first compound 0.03162 µM) of the same molecule?
A: 0.724

Q: What about the relative viability (HCC-15; first compound 0.1 µM) of the same molecule?
A: 0.859

Q: What about the relative viability (HCC-15; first compound 0.3162 µM) of the same molecule?
A: 0.784

Q: What about the relative viability (HCC-15; first compound 1 µM) of the same molecule?
A: 0.7

Q: And the relative viability (HCC-78; first compound 0.03162 µM)?
A: 0.75

Q: And the relative viability (HCC-78; first compound 0.1 µM)?
A: 0.618

Q: What about the relative viability (HCC-78; first compound 0.3162 µM) of the same molecule?
A: 0.809

Q: What about the relative viability (HCC-78; first compound 1 µM) of the same molecule?
A: 0.64

Q: What about the relative viability (HOP-62; first compound 0.01 µM) of the same molecule?
A: 1.15

Q: What about the relative viability (HOP-62; first compound 0.03162 µM) of the same molecule?
A: 1.13

Q: What about the relative viability (HOP-62; first compound 0.1 µM) of the same molecule?
A: 1.29

Q: And the relative viability (HOP-62; first compound 0.3162 µM)?
A: 0.974

Q: And the relative viability (HOP-62; first compound 1 µM)?
A: 1.06

Q: And the relative viability (LC-2-ad; first compound 0.01 µM)?
A: 0.425

Q: What about the relative viability (LC-2-ad; first compound 0.03162 µM) of the same molecule?
A: 0.372

Q: What about the relative viability (LC-2-ad; first compound 0.1 µM) of the same molecule?
A: 0.558

Q: What about the relative viability (LC-2-ad; first compound 0.3162 µM) of the same molecule?
A: 0.511

Q: And the relative viability (LC-2-ad; first compound 1 µM)?
A: 0.487

Q: And the relative viability (LXF-289; first compound 0.01 µM)?
A: 1.02

Q: And the relative viability (LXF-289; first compound 0.03162 µM)?
A: 0.968

Q: What about the relative viability (LXF-289; first compound 0.1 µM) of the same molecule?
A: 1.07

Q: And the relative viability (LXF-289; first compound 0.3162 µM)?
A: 0.939

Q: What about the relative viability (LXF-289; first compound 1 µM) of the same molecule?
A: 0.834

Q: What about the relative viability (NCI-H1734; first compound 0.01 µM) of the same molecule?
A: 0.971

Q: What about the relative viability (NCI-H1734; first compound 0.03162 µM) of the same molecule?
A: 0.863

Q: And the relative viability (NCI-H1734; first compound 0.1 µM)?
A: 0.824

Q: And the relative viability (NCI-H1734; first compound 0.3162 µM)?
A: 1.03

Q: And the relative viability (NCI-H1734; first compound 1 µM)?
A: 0.761

Q: And the relative viability (NCI-H1755; first compound 0.01 µM)?
A: 1.14

Q: And the relative viability (NCI-H1755; first compound 0.03162 µM)?
A: 1.08

Q: And the relative viability (NCI-H1755; first compound 0.1 µM)?
A: 1.07

Q: What about the relative viability (NCI-H1755; first compound 0.3162 µM) of the same molecule?
A: 1.09

Q: What about the relative viability (NCI-H1755; first compound 1 µM) of the same molecule?
A: 0.987

Q: What about the relative viability (NCI-H1792; first compound 0.01 µM) of the same molecule?
A: 0.688

Q: And the relative viability (NCI-H1792; first compound 0.03162 µM)?
A: 0.739

Q: What about the relative viability (NCI-H1792; first compound 0.1 µM) of the same molecule?
A: 0.712

Q: And the relative viability (NCI-H1792; first compound 0.3162 µM)?
A: 1.49

Q: And the relative viability (NCI-H1792; first compound 1 µM)?
A: 0.19

Q: What about the relative viability (NCI-H1915; first compound 0.01 µM) of the same molecule?
A: 0.826

Q: And the relative viability (NCI-H1915; first compound 0.03162 µM)?
A: 0.795

Q: What about the relative viability (NCI-H1915; first compound 0.1 µM) of the same molecule?
A: 0.838

Q: And the relative viability (NCI-H1915; first compound 0.3162 µM)?
A: 0.749

Q: And the relative viability (NCI-H1915; first compound 1 µM)?
A: 0.805

Q: What about the relative viability (NCI-H1975; first compound 0.01 µM) of the same molecule?
A: 1.14

Q: And the relative viability (NCI-H1975; first compound 0.03162 µM)?
A: 1.13

Q: And the relative viability (NCI-H1975; first compound 0.1 µM)?
A: 1.14

Q: And the relative viability (NCI-H1975; first compound 0.3162 µM)?
A: 1.23

Q: What about the relative viability (NCI-H1975; first compound 1 µM) of the same molecule?
A: 0.87

Q: What about the relative viability (NCI-H2126; first compound 0.01 µM) of the same molecule?
A: 0.904

Q: What about the relative viability (NCI-H2126; first compound 0.03162 µM) of the same molecule?
A: 0.845

Q: What about the relative viability (NCI-H2126; first compound 0.1 µM) of the same molecule?
A: 0.916

Q: And the relative viability (NCI-H2126; first compound 0.3162 µM)?
A: 0.927

Q: And the relative viability (NCI-H2126; first compound 1 µM)?
A: 0.828

Q: And the relative viability (NCI-H2228; first compound 0.01 µM)?
A: 0.841

Q: What about the relative viability (NCI-H2228; first compound 0.03162 µM) of the same molecule?
A: 0.866

Q: What about the relative viability (NCI-H2228; first compound 0.1 µM) of the same molecule?
A: 0.979

Q: What about the relative viability (NCI-H2228; first compound 0.3162 µM) of the same molecule?
A: 0.884

Q: What about the relative viability (NCI-H2228; first compound 1 µM) of the same molecule?
A: 0.541

Q: What about the relative viability (NCI-H2347; first compound 0.01 µM) of the same molecule?
A: 0.817

Q: What about the relative viability (NCI-H2347; first compound 0.03162 µM) of the same molecule?
A: 0.823

Q: What about the relative viability (NCI-H2347; first compound 0.1 µM) of the same molecule?
A: 0.762

Q: What about the relative viability (NCI-H2347; first compound 0.3162 µM) of the same molecule?
A: 0.833

Q: What about the relative viability (NCI-H2347; first compound 1 µM) of the same molecule?
A: 0.676

Q: And the relative viability (NCI-H647; first compound 0.01 µM)?
A: 1.12

Q: And the relative viability (NCI-H647; first compound 0.03162 µM)?
A: 1.14

Q: And the relative viability (NCI-H647; first compound 0.1 µM)?
A: 1.41

Q: What about the relative viability (NCI-H647; first compound 0.3162 µM) of the same molecule?
A: 1.21

Q: And the relative viability (NCI-H647; first compound 1 µM)?
A: 0.929

Q: What about the relative viability (PC-3 [JPC-3]; first compound 0.01 µM) of the same molecule?
A: 0.827

Q: What about the relative viability (PC-3 [JPC-3]; first compound 0.03162 µM) of the same molecule?
A: 0.785

Q: What about the relative viability (PC-3 [JPC-3]; first compound 0.1 µM) of the same molecule?
A: 0.855

Q: What about the relative viability (PC-3 [JPC-3]; first compound 0.3162 µM) of the same molecule?
A: 0.951

Q: What about the relative viability (PC-3 [JPC-3]; first compound 1 µM) of the same molecule?
A: 1.02

Q: And the relative viability (RERF-LC-KJ; first compound 0.01 µM)?
A: 0.996

Q: What about the relative viability (RERF-LC-KJ; first compound 0.03162 µM) of the same molecule?
A: 0.851

Q: And the relative viability (RERF-LC-KJ; first compound 0.1 µM)?
A: 0.925

Q: And the relative viability (RERF-LC-KJ; first compound 0.3162 µM)?
A: 1.09

Q: And the relative viability (RERF-LC-KJ; first compound 1 µM)?
A: 0.997

Q: What about the relative viability (SK-LU-1; first compound 0.01 µM) of the same molecule?
A: 1.02

Q: And the relative viability (SK-LU-1; first compound 0.03162 µM)?
A: 0.894

Q: What about the relative viability (SK-LU-1; first compound 0.1 µM) of the same molecule?
A: 1.08

Q: What about the relative viability (SK-LU-1; first compound 0.3162 µM) of the same molecule?
A: 1.18

Q: What about the relative viability (SK-LU-1; first compound 1 µM) of the same molecule?
A: 0.639

Q: What about the relative viability (SW 1573; first compound 0.01 µM) of the same molecule?
A: 0.958

Q: What about the relative viability (SW 1573; first compound 0.03162 µM) of the same molecule?
A: 0.963

Q: And the relative viability (SW 1573; first compound 0.1 µM)?
A: 1.31

Q: And the relative viability (SW 1573; first compound 0.3162 µM)?
A: 1.25

Q: And the relative viability (SW 1573; first compound 1 µM)?
A: 1.01
